Source: ChEMBL document CHEMBL5247625, “Discovery and characterization of novel potent BCR-ABL degraders by conjugating allosteric inhibitor” (Eur J Med Chem, 2022)
Calls of active or inactive are those of the source. No cut-off for these calls is given here.

What was measured:
[1] = molecular target: T1, Protein cereblon/Tyrosine-protein kinase ABL1/Breakpoint cluster region protein (Homo sapiens, UniProt P00519+P11274+Q96SW2); experiment: Protac activity at CRBN/BCR-ABL in human K562 cells assessed as increase in BCR-ABL degradation at 5 nM by Western blotting analysis; assay type: cell-based
Target sequence in this assay (P00519 whole entry, looked up): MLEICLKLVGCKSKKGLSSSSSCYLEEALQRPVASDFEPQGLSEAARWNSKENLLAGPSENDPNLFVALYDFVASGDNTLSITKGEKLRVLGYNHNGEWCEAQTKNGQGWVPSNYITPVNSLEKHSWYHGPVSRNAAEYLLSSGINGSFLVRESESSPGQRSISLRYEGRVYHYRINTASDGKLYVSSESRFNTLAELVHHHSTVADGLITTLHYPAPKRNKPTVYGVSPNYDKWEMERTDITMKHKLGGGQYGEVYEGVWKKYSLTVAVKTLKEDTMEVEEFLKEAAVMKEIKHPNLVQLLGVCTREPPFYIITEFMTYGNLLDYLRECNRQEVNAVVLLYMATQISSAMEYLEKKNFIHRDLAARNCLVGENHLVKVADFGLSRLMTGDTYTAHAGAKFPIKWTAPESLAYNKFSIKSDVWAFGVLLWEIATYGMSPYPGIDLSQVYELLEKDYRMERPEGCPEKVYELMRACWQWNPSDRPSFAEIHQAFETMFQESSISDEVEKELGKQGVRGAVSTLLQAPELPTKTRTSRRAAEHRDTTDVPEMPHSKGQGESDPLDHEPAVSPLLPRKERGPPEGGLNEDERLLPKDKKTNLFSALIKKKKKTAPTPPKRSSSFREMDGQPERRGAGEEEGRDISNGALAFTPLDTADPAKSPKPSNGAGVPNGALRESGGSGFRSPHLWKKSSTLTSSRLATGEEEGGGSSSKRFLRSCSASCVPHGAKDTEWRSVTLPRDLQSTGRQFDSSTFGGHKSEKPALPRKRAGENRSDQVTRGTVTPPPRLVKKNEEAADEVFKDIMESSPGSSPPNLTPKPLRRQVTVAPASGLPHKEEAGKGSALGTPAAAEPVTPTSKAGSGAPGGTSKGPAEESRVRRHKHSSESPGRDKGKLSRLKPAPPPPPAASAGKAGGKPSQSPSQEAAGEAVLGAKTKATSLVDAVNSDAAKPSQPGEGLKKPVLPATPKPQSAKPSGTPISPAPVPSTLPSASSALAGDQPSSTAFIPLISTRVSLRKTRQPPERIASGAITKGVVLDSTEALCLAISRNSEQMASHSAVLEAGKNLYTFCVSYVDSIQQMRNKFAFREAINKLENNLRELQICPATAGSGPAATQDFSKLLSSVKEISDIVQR
Target sequence in this assay (P11274 whole entry, looked up): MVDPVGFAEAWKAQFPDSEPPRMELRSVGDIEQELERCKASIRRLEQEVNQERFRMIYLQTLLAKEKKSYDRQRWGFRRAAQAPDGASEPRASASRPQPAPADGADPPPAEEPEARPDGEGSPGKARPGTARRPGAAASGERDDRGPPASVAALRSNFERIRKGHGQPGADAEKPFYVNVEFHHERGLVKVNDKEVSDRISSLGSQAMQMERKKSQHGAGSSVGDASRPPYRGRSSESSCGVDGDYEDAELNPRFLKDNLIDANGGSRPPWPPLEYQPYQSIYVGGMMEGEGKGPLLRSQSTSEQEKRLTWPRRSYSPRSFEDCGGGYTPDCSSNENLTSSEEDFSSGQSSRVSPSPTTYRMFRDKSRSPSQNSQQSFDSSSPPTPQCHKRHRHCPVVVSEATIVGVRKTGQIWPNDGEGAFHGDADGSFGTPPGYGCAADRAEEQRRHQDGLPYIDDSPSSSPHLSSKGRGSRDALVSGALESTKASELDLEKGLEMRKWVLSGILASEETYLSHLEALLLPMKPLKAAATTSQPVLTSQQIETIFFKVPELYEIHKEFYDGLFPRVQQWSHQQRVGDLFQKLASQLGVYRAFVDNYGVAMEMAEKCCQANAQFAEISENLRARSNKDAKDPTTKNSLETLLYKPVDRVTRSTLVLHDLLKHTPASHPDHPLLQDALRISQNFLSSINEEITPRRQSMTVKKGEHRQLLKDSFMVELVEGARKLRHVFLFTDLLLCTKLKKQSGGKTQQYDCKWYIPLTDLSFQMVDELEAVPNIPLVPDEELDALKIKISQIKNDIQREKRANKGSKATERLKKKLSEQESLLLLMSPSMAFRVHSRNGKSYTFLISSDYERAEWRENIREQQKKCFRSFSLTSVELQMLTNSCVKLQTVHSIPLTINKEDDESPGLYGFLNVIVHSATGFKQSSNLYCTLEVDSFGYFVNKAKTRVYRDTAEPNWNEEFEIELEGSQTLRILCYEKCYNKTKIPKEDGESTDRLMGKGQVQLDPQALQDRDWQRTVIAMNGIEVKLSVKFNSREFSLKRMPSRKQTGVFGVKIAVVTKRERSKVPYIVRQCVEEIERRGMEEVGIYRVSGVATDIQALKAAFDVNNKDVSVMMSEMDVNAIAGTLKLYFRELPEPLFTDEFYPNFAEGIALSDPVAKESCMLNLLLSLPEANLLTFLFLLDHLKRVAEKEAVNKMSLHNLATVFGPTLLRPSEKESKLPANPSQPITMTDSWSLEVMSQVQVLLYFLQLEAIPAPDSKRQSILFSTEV
Target sequence in this assay (Q96SW2 whole entry, looked up): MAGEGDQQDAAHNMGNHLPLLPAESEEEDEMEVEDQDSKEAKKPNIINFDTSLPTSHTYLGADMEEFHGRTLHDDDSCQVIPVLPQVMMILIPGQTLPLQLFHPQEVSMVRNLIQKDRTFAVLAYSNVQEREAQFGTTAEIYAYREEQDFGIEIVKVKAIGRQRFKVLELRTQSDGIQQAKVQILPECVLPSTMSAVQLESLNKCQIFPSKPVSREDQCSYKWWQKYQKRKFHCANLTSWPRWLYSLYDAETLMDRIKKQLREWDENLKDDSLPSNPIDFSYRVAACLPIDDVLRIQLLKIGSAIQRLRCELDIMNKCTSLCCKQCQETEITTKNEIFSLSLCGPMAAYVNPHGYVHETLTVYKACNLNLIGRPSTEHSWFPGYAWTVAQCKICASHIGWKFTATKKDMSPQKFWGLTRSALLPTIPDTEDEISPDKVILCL

[2] = molecular target: T1, Protein cereblon/Tyrosine-protein kinase ABL1/Breakpoint cluster region protein; experiment: Protac activity at CRBN/BCR-ABL in human K562 cells assessed as increase in BCR-ABL degradation incubated for 16 hrs by Western blotting analysis; assay type: cell-based
Target sequence in this assay (P00519 whole entry): as the sequence (P00519 whole entry, looked up) above
Target sequence in this assay (P11274 whole entry): as the sequence (P11274 whole entry, looked up) above
Target sequence in this assay (Q96SW2 whole entry): as the sequence (Q96SW2 whole entry, looked up) above

[3] = molecular target: T1, Protein cereblon/Tyrosine-protein kinase ABL1/Breakpoint cluster region protein; experiment: Protac activity at CRBN/BCR-ABL in human K562 cells assessed as induction of BCR-ABL degradation at 100 nM pretreated with MLN4924 for 2 hrs followed by compound addition measured after 8 hrs by Western blotting analysis; assay type: cell-based; conditions: time 10.0 hrs
Target sequence in this assay (P00519 whole entry, looked up): as the sequence (P00519 whole entry, looked up) above
Target sequence in this assay (P11274 whole entry, looked up): as the sequence (P11274 whole entry, looked up) above
Target sequence in this assay (Q96SW2 whole entry, looked up): as the sequence (Q96SW2 whole entry, looked up) above

K562 = experiment: Down regulation of ZFP91 expression in human K562 cells at 100 nM measured after 16 hrs by LC-MS analysis; assay type: functional, cell-based
[4] = test system: Protein cereblon/Tyrosine-protein kinase ABL1/Breakpoint cluster region protein (Mus musculus), P00519+P11274+Q8C7D2 [V468F]; experiment: Protac activity at CRBN/BCR-ABL V468F mutant in mouse 32D cells assessed as increase in BCR-ABL degradation at 1 to 1000 nM by Western blotting analysis; assay type: cell-based; conditions: dose 1-1000 nM
[5] = test system: Protein cereblon/Tyrosine-protein kinase ABL1/Breakpoint cluster region protein (Mus musculus), P00519+P11274+Q8C7D2 [K294E]; experiment: Protac activity at CRBN/asciminib resistance BCR-ABL K294E mutant in mouse 32D cells assessed as increase in BCR-ABL degradation at 1 to 1000 nM by Western blotting analysis; assay type: cell-based; conditions: dose 1-1000 nM
[6] = molecular target: Tyrosine-protein kinase ABL1 (Homo sapiens, UniProt P00519); experiment: Binding affinity to recombinant ABL (unknown origin)
Chain of Tyrosine-protein kinase ABL1 (P00519 whole entry, the tested form may be a part): as the sequence (P00519 whole entry, looked up) above

[7] = molecular target: T2, Bcr/Abl fusion protein (Homo sapiens) (UniProt P00519+P11274); experiment: Inhibition of BCR-ABL phosphorylation at Tyr245 residue in human K562 cells at 100 nM incubated for 6 hrs followed by compound washout measured upto 96 hrs by Western blotting analysis; assay type: cell-based
T2 sequence (P00519 whole entry, looked up, the tested form may be a part): as the sequence (P00519 whole entry, looked up) above
T2 sequence (P11274 whole entry, looked up, the tested form may be a part): as the sequence (P11274 whole entry, looked up) above

[8] = molecular target: T1, Protein cereblon/Tyrosine-protein kinase ABL1/Breakpoint cluster region protein; experiment: Protac activity at CRBN/BCR-ABL in human K562 cells assessed as induction of c-ABL degradation at 100 nM pretreated with lenalidomide for 2 hrs followed by compound addition measured after 8 hrs by Western blotting analysis; assay type: cell-based; conditions: time 10.0 hrs
Target sequence in this assay (P00519 whole entry, looked up): as the sequence (P00519 whole entry, looked up) above
Target sequence in this assay (P11274 whole entry, looked up): as the sequence (P11274 whole entry, looked up) above
Target sequence in this assay (Q96SW2 whole entry, looked up): as the sequence (Q96SW2 whole entry, looked up) above

[9] = test system: Protein cereblon/Tyrosine-protein kinase ABL1/Breakpoint cluster region protein (Mus musculus), P00520+Q6PAJ1+Q8C7D2 [E255V]; experiment: Protac activity at CRBN/BCR-ABL E255V mutant in mouse 32D cells assessed as increase in BCR-ABL degradation at 1 to 1000 nM by Western blotting analysis; assay type: cell-based; conditions: dose 1-1000 nM
[10] = molecular target: T2, Bcr/Abl fusion protein (Homo sapiens); experiment: Inhibition of BCR-ABL phosphorylation at Tyr245 residue in human K562 cells at 100 nM by Western blotting analysis; assay type: cell-based; conditions: time <= 18.0 hrs, TDE = time-dependent effect
[11] = test system: Protein cereblon/Tyrosine-protein kinase ABL1/Breakpoint cluster region protein (Mus musculus), P00519+P11274+Q8C7D2 [G671R]; experiment: Protac activity at CRBN/asciminib resistance BCR-ABL G671R mutant in mouse 32D cells assessed as increase in BCR-ABL degradation at 1 to 1000 nM by Western blotting analysis; assay type: cell-based; conditions: dose 1-1000 nM
[12] = molecular target: T1, Protein cereblon/Tyrosine-protein kinase ABL1/Breakpoint cluster region protein; experiment: Protac activity at CRBN/BCR-ABL in human K562 cells assessed as increase in BCR-ABL degradation at 100 nM incubated for 6 hrs followed by compound washout measured upto 96 hrs by Western blotting analysis; assay type: cell-based
Target sequence in this assay (P00519 whole entry, looked up): as the sequence (P00519 whole entry, looked up) above
Target sequence in this assay (P11274 whole entry, looked up): as the sequence (P11274 whole entry, looked up) above
Target sequence in this assay (Q96SW2 whole entry, looked up): as the sequence (Q96SW2 whole entry, looked up) above

[13] = molecular target: T1, Protein cereblon/Tyrosine-protein kinase ABL1/Breakpoint cluster region protein; experiment: Protac activity at CRBN/BCR-ABL in human K562 cells assessed as induction of BCR-ABL degradation at 100 nM pretreated with MG132 for 2 hrs followed by compound addition measured after 8 hrs by Western blotting analysis; assay type: cell-based; conditions: time 10.0 hrs
Target sequence in this assay (P00519 whole entry, looked up): as the sequence (P00519 whole entry, looked up) above
Target sequence in this assay (P11274 whole entry, looked up): as the sequence (P11274 whole entry, looked up) above
Target sequence in this assay (Q96SW2 whole entry, looked up): as the sequence (Q96SW2 whole entry, looked up) above

[14] = molecular target: T1, Protein cereblon/Tyrosine-protein kinase ABL1/Breakpoint cluster region protein; experiment: Protac activity at CRBN/BCR-ABL in human K562 cells assessed as increase in BCR-ABL degradation at 0.3 to 100 nM incubated for 16 hrs by Western blotting analysis relative to control; assay type: cell-based; conditions: dose 0.3-100 nM
Target sequence in this assay (P00519 whole entry, looked up): as the sequence (P00519 whole entry, looked up) above
Target sequence in this assay (P11274 whole entry, looked up): as the sequence (P11274 whole entry, looked up) above
Target sequence in this assay (Q96SW2 whole entry, looked up): as the sequence (Q96SW2 whole entry, looked up) above

[15] = molecular target: T1, Protein cereblon/Tyrosine-protein kinase ABL1/Breakpoint cluster region protein; experiment: Protac activity at CRBN/BCR-ABL in human K562 cells assessed as induction of c-ABL degradation at 100 nM pretreated with asciminib for 2 hrs followed by compound addition measured after 8 hrs by Western blotting analysis; assay type: cell-based; conditions: time 10.0 hrs
[16] = test system: Protein cereblon/Tyrosine-protein kinase ABL1/Breakpoint cluster region protein (Mus musculus), P00519+P11274+Q8C7D2 [P223S]; experiment: Protac activity at CRBN/asciminib resistance BCR-ABL P223S mutant in mouse 32D cells assessed as increase in BCR-ABL degradation at 1 to 1000 nM by Western blotting analysis; assay type: cell-based; conditions: dose 1-1000 nM
[17] = molecular target: T1, Protein cereblon/Tyrosine-protein kinase ABL1/Breakpoint cluster region protein; experiment: Protac activity at CRBN/BCR-ABL in human K562 cells assessed as increase in BCR-ABL degradation at 100 nM incubated for 6 hrs followed by compound washout measured after 4 hrs by Western blotting analysis; assay type: cell-based
[18] = molecular target: T2, Bcr/Abl fusion protein (Homo sapiens); experiment: Inhibition of BCR-ABL phosphorylation at Tyr245 residue in human K562 cells at 0.3 to 100 nM incubated for 16 hrs by Western blotting analysis; assay type: cell-based; conditions: dose 0.3-100 nM
[19] = test system: Protein cereblon/Tyrosine-protein kinase ABL1/Breakpoint cluster region protein (Mus musculus), P00520+Q6PAJ1+Q8C7D2 [T315I]; experiment: Protac activity at CRBN/BCR-ABL T315I mutant in mouse 32D cells assessed as increase in BCR-ABL degradation at 1 to 1000 nM by Western blotting analysis; assay type: cell-based; conditions: dose 1-1000 nM
[20] = molecular target: T1, Protein cereblon/Tyrosine-protein kinase ABL1/Breakpoint cluster region protein; experiment: Protac activity at CRBN/BCR-ABL in human K562 cells assessed as increase in BCR-ABL degradation at 100 nM by Western blotting analysis; assay type: cell-based

Compound: O=C1CCC(N2Cc3c(SCCCCCCN4CCN(C5CCN(c6ncc(C(=O)Nc7ccc(OC(F)(F)Cl)cc7)cc6-c6ccn[nH]6)CC5)CC4)cccc3C2=O)C(=O)N1 (stereo unspecified)
- Activity [1]: 81.8%
- DC50 [2]: 2.7 nM
- Activity [3]: inactive
- Activity (K562): Active
- Activity [4]: inactive
- Activity [5]: Active
- Kd [6]: 4740 nM
- inhibition [7]: inactive
- Activity [8]: inactive
- Activity [9]: Active
- inhibition [10]: Tde
- Activity [11]: Active
- Activity [12]: inactive
- Activity [13]: inactive
- Emax [14]: 91.2%
- Activity [15]: inactive
- Activity [16]: Active
- Activity [17]: inactive
- inhibition [18]: Active
- Activity [19]: Active
- Activity [20]: 91.2%
